Results: patent US4551547A, “Biocidal 2-aryl-1, 3-cyclopentanedione enol ester compounds” (Union Carbide Corporation, priority 1983, dated 1985)
Converted amounts (≈) assume the structure as drawn.

Assays:
Corn = test: Post-emergent herbicidal test, corn; format: in vivo; parameters: key: 1: no perceptible injury; 2: intermediate degrees of injury; 3: intermediate degrees of injury; 4: intermediate degrees of injury; 5: the plant was dead; conditions: 2500 parts per million, after ten days; for Post-emergent Herbicidal, Corn: Table II
Experimental: (§1) Suspensions of the test compounds were prepared by dissolving one gram of compound in 50 milliliters of acetone in which had been dissolved 0.1 gram (10 percent of the weight of compound) of an alkylphenoxyethanol sufactant, as an emulsifying or dispersing agent. The resulting solution was mixed into 160 milliliters of water to give roughly 200 milliliters of a suspension containing the compound in finely divided form. The thus prepared stock suspension contained 0.5 percent by weight of compound. The test concentrations employed in the tests described below were obtained by diluting the stock suspension with water. The test procedures were as follows:
(§2) Experiments were also conducted to determine the phytotoxicity of representative compositions with respect to healthy fresh plants. Solutions of the compounds were prepared as described above to provide a concentration of 2500 parts per million of the test compound. The test plants were sprayed in accordance with the procedure described above for the Mite Foliage Spray Test so as to deliver approximately 100 milliliters of test solutions to the leaves of each plant tested. The sprayed plants and controls were set aside for approximately one hour to allow the solutions to dry and were then placed in the greenhouse. After ten days the plants were visually inspected to determine the extent of foliage injury. A rating of 1 indicates no perceptible injury; 5 indicates the plant was dead and ratings of 2, 3 and 4 indicate intermediate degrees of injury based upon the number and extent to which leaves were injured.

[1] = system: egg of the two-spotted mite; test: Mite Ovicide Test (eggs); format: in vivo, Tetranychus urticae (Koch); parameters: key to Miticidal, Egg: A: Excellent Control; B: Partial Control; No Control; conditions: for Miticidal, Egg: Table II, unhatched eggs after four days
Experimental: Suspensions of the test compounds were prepared by dissolving one gram of compound in 50 milliliters of acetone in which had been dissolved 0.1 gram (10 percent of the weight of compound) of an alkylphenoxyethanol sufactant, as an emulsifying or dispersing agent. The resulting solution was mixed into 160 milliliters of water to give roughly 200 milliliters of a suspension containing the compound in finely divided form. The thus prepared stock suspension contained 0.5 percent by weight of compound. The test concentrations employed in the tests described below were obtained by diluting the stock suspension with water. The test procedures were as follows: The test organism was the egg of the two-spotted mite (Tetranychus urticae (Koch)), as obtained from adults reared on […] bean plants under controlled conditions of 80±5° F. and 50±5 percent relative humidity. Heavily infested leaves from a stock culture were placed on the primary leaves of two bean plants six to eight inches in height growing in a two-and-a-half inch clay pot. Females were allowed to oviposit for a period of 48 hours and the leaves of the infested plants were dipped in a solution containing 800 parts of tetraethyl pyrophosphate per million parts of water in order to destroy the reproductory forms and thus prevent further egg laying. […] The plants were allowed to dry thoroughly. The test compounds were formulated by diluting the stock suspension with water to give a suspension containing varying amounts of test compound per million parts of final formulation. The potted plants (one pot per compound) were placed on a revolving turntable and sprayed with 100-110 milliliters of test compound formulation by use of a DeVilbis spray gun set at 40 spig. air pressure. This application which lasted 30 seconds, was sufficient to wet the plants to run-off. As a control, 100-110 milliliters of a water solution containing acetone and emulsifier in the same concentrations as the test compound formulation, but containing no test compound, were also sprayed on plants infested with eggs. The sprayed plants were held at 80±5° F. and 50±5 percent relative humidity for four days, after which a microscopic examination was made of unhatched (dead) and hatched (living) eggs. In these tests the pesticidal activity of the compounds against mites and mite eggs was rated as follows: Tests were conducted in accordance with the procedures given at pages 17 to 21 supra. The results are expressed in the same manner as used in Table II, except with respect to miticidal activity. For mite adult and mite egg comparison purposes, results are given in parts per million (ppm) required for a 50 percent kill of mites or eggs, respectively.

Bean = test: Post-emergent herbicidal test, bean; format: in vivo; parameters: key: 1: no perceptible injury; 2: intermediate degrees of injury; 3: intermediate degrees of injury; 4: intermediate degrees of injury; 5: the plant was dead; conditions: 2500 parts per million, after ten days; for Post-emergent Herbicidal, Bean: Table II
Experimental: as §1, §2

Mustard = test: Preliminary herbicide seed germination test (pre-emergent), mustard; format: in vivo, Brassica pincea var. foliosa (Florida broadleaf); parameters: key: 5: no seedling emerged; 4: few seedlings emerged and/or very severe stunting; 3: moderate reduction in stand and/or moderate stunting.; 2: very slight reduction in stand and/or slight stunting; 1: no injury, seedlings appear no different with respect to stand or growth than untreated controls; conditions: ten to twelve days after application
Experimental: as §1
(§3) The following seeds were used in this test:
Mustard--Brassica pincea var. foliosa (Florida broadleaf)
(§4) Two […] mixtures were prepared as follows:
(§5) Each of the above mixtures was rolled separately in 5 gallon containers for approximately one-half hour on ball mill to insure uniform mixing of seeds and soil. For each compound four 3-inch pots were filled with soil to within 11/2 inches of top of pots. To two of these pots were added 70 cc. of Mixture I. To the remaining 2 pots were added 70 cc. of Mixture II. The seed-soil mixture was tamped firmly, and the pots were removed to the greenhouse and watered lightly. About 2 hours after planting, 25 milliliters of the test formulation were added to one pot containing Mixture I and one pot containing Mixture II. An equal volume of a water solution containing acetone and an emulsifier in the same concentration as the herbicidal mixture but without the candidate herbicide was also added to each of the soil-seed mixtures. These pots are used as check or control units. The test compounds were formulated by diluting the stock suspension with water to obtain the desired concentration of the compound in parts per million of the final formulation. Each compound was tested at the same concentration. […] Ratings were made according to the following designations: […]

Tomato = test: Post-emergent herbicidal test, tomato; format: in vivo; parameters: key: 1: no perceptible injury; 2: intermediate degrees of injury; 3: intermediate degrees of injury; 4: intermediate degrees of injury; 5: the plant was dead; conditions: 2500 parts per million, after ten days; for Post-emergent Herbicidal, Tomato: Table II
Experimental: as §1, §2

Soybean = test: Post-emergent herbicidal test, soybean; format: in vivo; parameters: key: 1: no perceptible injury; 2: intermediate degrees of injury; 3: intermediate degrees of injury; 4: intermediate degrees of injury; 5: the plant was dead; conditions: 2500 parts per million, after ten days; for Post-emergent Herbicidal, Soybean: Table II
Experimental: as §1, §2

[2] = system: Red root pigweed (Amaranthus); test: Preliminary herbicide seed germination test (pre-emergent), red root pigweed; format: in vivo, Amaranthus retroflexus; parameters: key: 5: no seedling emerged; 4: few seedlings emerged and/or very severe stunting; 3: moderate reduction in stand and/or moderate stunting.; 2: very slight reduction in stand and/or slight stunting; 1: no injury, seedlings appear no different with respect to stand or growth than untreated controls; conditions: ten to twelve days after application
Experimental: as §1, §3
Red root pigweed--Amaranthus retroflexus
as §4, §5

Crabgrass = test: Preliminary herbicide seed germination test (pre-emergent), crabgrass; format: in vivo, Digitaria sanguinalis; parameters: key: 5: no seedling emerged; 4: few seedlings emerged and/or very severe stunting; 3: moderate reduction in stand and/or moderate stunting.; 2: very slight reduction in stand and/or slight stunting; 1: no injury, seedlings appear no different with respect to stand or growth than untreated controls; conditions: ten to twelve days after application
Experimental: as §1, §3
Crabgrass--Digitaria sanguinalis
as §4, §5

Row | SMILES | Post-emergent Herbicidal, Corn (Corn) | Miticidal, Egg [1] | Post-emergent Herbicidal, Bean (Bean) | Pre-emergent Herbicidal, Mustard (Mustard; Table II) | Post-emergent Herbicidal, Tomato (Tomato) | Post-emergent Herbicidal, Soybean (Soybean) | Pre-emergent Herbicidal, Amaranthus ([2]; Table II) | Pre-emergent Herbicidal, Crabgrass (Crabgrass; Table II) | Post Emergent Herbicidal, Corn (Corn; Table III) | LC50 ([1]; Tetranychus urticae, Table III, ppm required for a 50 percent kill of eggs, read-out: Miticidal LD50, Egg) | Post Emergent Herbicidal, Bean (Bean; Table III) | Pre-emergent Herbicidal, Mustard (Mustard; Table III) | Post Emergent Herbicidal, Tomato (Tomato; Table III) | Post Emergent Herbicidal, Soybean (Soybean; Table III) | Pre-emergent Herbicidal, Amaranthus ([2]; Table III) | Pre-emergent Herbicidal, Crabgrass (Crabgrass; Table III)
1 | O=C1CCC(OC(=O)c2ccccc2)=C1c1ccccc1Cl [Compound 2] | 3 | A | 3 | 1 | 2 | 2 | 1 | 3 | – | – | – | – | – | – | – | –
2 | CCCCCCCCCC(=O)OC1=C(c2ccccc2C)C(=O)C2CCCCC12 (centres unmarked) [Compound 23] | 5 | A | 2 | 3 | 1 | 3 | 3 | 3 | – | – | – | – | – | – | – | –
3 | CCCCC(CC)C(=O)OC1=C(c2cc(C)ccc2C)C(=O)C(C)C1 (centres unmarked) [Compound 17] | 3 | A | 3 | 1 | 1 | 3 | 3 | 1 | – | – | – | – | – | – | – | –
4 | CCCCCCCCCC(=O)OC1=C(c2ccccc2C)C(=O)C2CCCCC12 (centres unmarked) [drawing 15] | – | – | – | – | – | – | – | – | 5 | 1 µg/mL (≈ 2.52 µM) | 2 | 3 | 1 | 3 | 3 | 3
5 | CC(C)C(=O)OC1=C(c2ccc(Cl)cc2Cl)C(=O)CC1 [Compound 4] | 4 | B | 2 | 1 | 2 | 2 | 1 | – | – | – | – | – | – | – | – | –
6 | CC(=O)OC1=C(c2ccc(Cl)cc2Cl)C(=O)CC1 [Compound 3] | 3 | A | 2 | 1 | 2 | 2 | 2 | – | – | – | – | – | – | – | – | –
7 | CCCCCCCCCCCCCCCC(=O)OC1=C(c2ccc(Cl)cc2Cl)C(=O)CC1 [Compound 6] | 1 | B | 1 | 1 | 1 | 1 | 1 | – | – | – | – | – | – | – | – | –
